This is an account of results in PubChem BioAssay (NCI).

Holding throughout (assay): inhibition of tumour cell growth, NCI panel, 48 h
Test [1] relates to A549 NSCLC.
The subject of test [2] is KM12 colon.
In test [3] the test system is MOLT-4 leukemia.
For test [4], the system named is NCI-H522 lung.
The subject of test [5] is OVCAR-3 ovarian.
The test system of test [6] is OVCAR-8 ovarian.
Test [7] concerns SF-295 CNS.
In test [8] the test system is SK-MEL-5 melanoma.
The test system of test [9] is SK-OV-3 ovarian.
The subject of test [10] is SNB-75 CNS.

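Cells were grown in 96-well plates and exposed to each compound for 48 hours at five concentrations; endpoints were interpolated linearly between bracketing concentrations, or set to the highest concentration if not reached. At the TGI there is no net growth.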

Take `Cn1c(=O)cc(Nc2ccc(N)cc2)[nH]c1=O`: the TGI in test [1], in test [2], in [3], in test [4], in [5] and in [6] was over 100 µM throughout. Besides, the TGI in test [7], in [8], in [9] and in test [10] was over 100 µM in each case.
As for `c1ccc2c(c1)-c1ccccc1C2NC1=NCCO1`, the TGI in test [1] was over 100 µM; in test [2] it was 33.2 µM; in test [3], over 100 µM; in [4], 51.4 µM; in [5] it was 67.8 µM; in test [6] it was 57.2 µM. Besides, the TGI in test [7] is over 100 µM; in [8] it was 29.1 µM; in test [9] it was over 100 µM; in test [10], 49.5 µM.
On to `CC(N)C(C)c1ccccc1` (stereo not given), for which the TGI in test [1], in [2], in test [3], in test [4], in test [5] and in test [6] was over 100 µM throughout. The TGI in [7], in [8], in test [9] and in test [10] was over 100 µM in each case.
Take `O=c1oc2ccccc2n1P(=O)(Oc1ccc(Cl)cc1)n1c(=O)oc2ccccc21`: the TGI in test [1], in [2], in [3], in test [4], in test [5] and in test [6] was over 100 µM in each case. The TGI in [7], in [8], in test [9] and in test [10] was over 100 µM each time.
On to `CCCCCCCCCCCCc1ccsc1-c1ccc(-c2ccc(-c3sccc3CCCCCCCCCCCC)s2)s1`, for which the TGI in [1], in [2], in test [3], in test [4], in test [5] and in test [6] was over 100 µM throughout. For the same compound, the TGI in test [7], in test [8], in [9] and in test [10] was over 100 µM throughout.
With `N=c1oc2cc(O)ccc2cc1C(=O)Nc1cccc2ccccc12`, the TGI in [1] is 23.2 µM; in [2] it was over 36.2 µM; in test [3], over 35.4 µM; in test [4], 7.47 µM; in test [5], over 27.9 µM; in test [6], 18.3 µM. Moreover, the TGI in test [7] was determined as 23.2 µM; in test [8] it was 15.8 µM; in test [9], 27.6 µM; in test [10], 13.9 µM.
Consider `CC#CC#C/C=C1\C=CC2(OC=CC2O)O1` (stereo not given), for which the TGI in test [1] was over 23.3 µM; in test [2] it was 7.3 µM; in test [3], over 23.3 µM; in test [4], over 20.3 µM; in test [5] it was over 20 µM; in [6], over 23.3 µM. Further, the TGI in test [7], in [8], in test [9] and in test [10] was over 23.3 µM each time.
`CN(/N=C/C=N/N(C)C1=NCCN1)C1=NCCN1`: the TGI in test [1], in test [2], in test [3], in [4], in test [5] and in test [6] was over 100 µM throughout. Further, the TGI in test [7], in test [8], in test [9] and in test [10] was over 100 µM throughout.
For the compound `Cc1cccc(-c2nc(-c3cnccn3)n(Cc3ccccc3)n2)c1`, the TGI in test [1], in [2], in test [3], in test [4], in test [5] and in [6] was over 100 µM throughout. Moreover, the TGI in test [7] was over 100 µM; in test [8], over 100 µM; in test [9] it was over 100 µM; in test [10] it was 30.2 µM.
Consider `C=C(C)[C@H]1CC(=O)[C@@]2(C)C[C@H]3O[C@]3(C)CC/C=C(\C)CC[C@H]12`, for which the TGI is over 100 µM in [1]; 54.6 µM in test [2]; 60.9 µM in test [3]; over 100 µM in test [4]; 80.1 µM in test [5]; over 100 µM in [6]. Also, the TGI in test [7] was over 100 µM; in test [8], 95.6 µM; in test [9] it was over 100 µM; in test [10] it was over 100 µM.
Take `O=C(OCC(OC(=O)c1ccccc1)C1CC(C2(O)CCCCC2)C(=O)O1)c1ccccc1` (stereo not given): the TGI in test [1] was over 25 µM; in test [2], over 25 µM; in [3], 19.1 µM; in test [4], over 25 µM; in test [5], over 25 µM; in test [6] it was over 25 µM. For the same compound, the TGI in test [7], in test [8], in test [9] and in test [10] was over 25 µM each time.
Take `Cc1ccc(-c2cc(=O)c(=O)[nH][nH]2)cc1`: the TGI in test [1], in test [2], in test [3], in [4], in test [5] and in test [6] was over 100 µM in each case. Besides, the TGI in test [7], in test [8], in test [9] and in [10] was over 100 µM each time.
Consider `O=C(CC(=O)N1N=C(N(c2ccccc2)c2ccccc2)CC1c1ccccc1)Nc1cccc(Cl)c1` (stereo not given), for which the TGI in [1], in test [2], in [3], in test [4], in test [5] and in test [6] was over 100 µM in each case. The TGI in test [7], in test [8], in [9] and in [10] was over 100 µM in each case.
